Key:
[1] = test system: cholesterol 7α-hydroxylase; test: Hepatic cholesterol 7α-hydroxylase activity in chickens fed supplemented diets; format: in vivo, chicken; settings: control diet + 50 ppm, 4 weeks
Method: This example measured the effects of the TRF and its components on the hepatic enzymatic activity of HMG-CoA reductase and cholesterol 7α-hydroxylase. […] The amount of feed consumed ranged from 11.19-11.60 g per chicken and the feeding period was 4 weeks. The birds were fasted for a period of 36 hours and refed for 48 hours prior to sacrifice (at 0800 hours).

[2] = test system: hypercholesterolemic swine; test: Body weight gain and feed conversion efficiency in hypercholesterolemic swine; format: in vivo; settings: control diet + 50 ppm
Method: Each group of three 5-month old swine was administered either a control diet or a control diet supplemented with 50 ppm of TRF or 50 ppm of an individual tocotrienol. The samples were prepared as described in Example 11. After a 12 hour fast, serum and plasma samples were taken a 0 hrs, 21 days and 42 days from the start of the feeding period. After taking serum and plasma samples from the pigs at the end of the 42 day period, all of the swine were fasted for a total of 40 hours, followed by a 48 hour refeeding period. One swine from each group was sacrificed at that time and the liver, intestine, lung, heart, loin muscle, adipose tissue and ham muscle were removed.

[3] = test system: cholesterol 7α-hydroxylase; test: Cholesterol 7α-hydroxylase activity in isolated chicken hepatocytes; format: cell-based
Method: (§1) This study measured the effects of three tocotrienols isolated from rice bran on cholesterol-related enzyme activity in hepatocytes isolated from livers of 8-week old female chickens. The chickens were fed the chick mash diet for 8 weeks. They were then fasted for 40 hours and finally refed for 48 hours before sacrifice. The hepatocytes were then prepared following standard methods.
(§2) Each compound was isolated from TRF using the following protocol: A bond Elute amine column was equilibrated with 2 ml hexane. 10 mg of TRF (dissolved in 0.5 ml hexane) was bound to the amine column. The column was washed with 1 ml of hexane, then with 1 ml of 3% isopropanol in hexane. P-21 and P-25 were eluted off the column with 5% isopropanol in hexane. Then using 10% isopropanol in hexane, the impurity P-20 was eluted. α-tocotrienol was also tested.

chickens = test: Serum cholesterol, apolipoproteins, triglycerides and glucose in chickens fed supplemented diets; format: in vivo, chicken; settings: 4 weeks; for APO A1, percentage of control / APO A1 in serum / APO B in serum / APO B, percentage of control / DL-Cholesterol/Total Cholesterol / DL-Cholesterol/Total Cholesterol, percentage of control / Glucose in serum / Glucose, percentage of control / HDL-Cholesterol in serum / HDL-Cholesterol, percentage of control / HDL-Cholesterol/LDL-Cholesterol / HDL-Cholesterol/LDL-Cholesterol, percentage of control / LDL-Cholesterol in serum / LDL-Cholesterol, percentage of control / Total Cholesterol in serum / Total Cholesterol, percentage of control / Triglycerides in serum / Triglycerides, percentage of control: control diet + 50 ppm
From the text: All assays conducted on chicken or swine serum were done following the protocols described in A. A. Qureshi et al., "Lowering Of Serum Cholesterol In Hypercholesterolemic Humans By Tocotrienols" (Palmvitee), Am. J. Clin. Nutr., 53, pp. 1021S-26S (1991). All enzymatic assays were done following the protocols described in A. A. Qureshi et al., "Effects of Cereals and Culture Filtrate of Trichoderma viride on Lipid Metabolism of Swine", Lipids, 17, pp. 924 (1982). Plasma insulin, glucagon and TNF levels were measured using radioinnumoassay kits from Ventrex Laboratories, Inc. (Portland, Me.), ICN Biomedicals, Inc. (Costa Mesa, Calif.) and Genzyme Corp. (Cambridge, Mass.), respectively. […]
Each group of 6 chickens (6-week old female while leghorn) was administered the chick mash diet described in Example 5, supplemented with one of three different amounts of waxes (sterols), 50 ppm of TRF (prepared as in Example 2) or 5% equivalent of the methanol insoluble fraction Louisiana rice bran oil. […] The birds were fasted for a period of 14 hours prior to sacrifice (at 0800 hours). […]

Fatty Acid Synthase = biological target: T1, Fatty Acid Synthase (Gallus gallus, UniProt P12276); test: Fatty acid synthase activity in isolated chicken hepatocytes; format: cell-based
T1 construct: hepatocytes isolated from livers of 8-week old female chickens; endogenous in cells; host or cells: primary chicken hepatocytes
T1 sequence (P12276 2-2512 limits assumed): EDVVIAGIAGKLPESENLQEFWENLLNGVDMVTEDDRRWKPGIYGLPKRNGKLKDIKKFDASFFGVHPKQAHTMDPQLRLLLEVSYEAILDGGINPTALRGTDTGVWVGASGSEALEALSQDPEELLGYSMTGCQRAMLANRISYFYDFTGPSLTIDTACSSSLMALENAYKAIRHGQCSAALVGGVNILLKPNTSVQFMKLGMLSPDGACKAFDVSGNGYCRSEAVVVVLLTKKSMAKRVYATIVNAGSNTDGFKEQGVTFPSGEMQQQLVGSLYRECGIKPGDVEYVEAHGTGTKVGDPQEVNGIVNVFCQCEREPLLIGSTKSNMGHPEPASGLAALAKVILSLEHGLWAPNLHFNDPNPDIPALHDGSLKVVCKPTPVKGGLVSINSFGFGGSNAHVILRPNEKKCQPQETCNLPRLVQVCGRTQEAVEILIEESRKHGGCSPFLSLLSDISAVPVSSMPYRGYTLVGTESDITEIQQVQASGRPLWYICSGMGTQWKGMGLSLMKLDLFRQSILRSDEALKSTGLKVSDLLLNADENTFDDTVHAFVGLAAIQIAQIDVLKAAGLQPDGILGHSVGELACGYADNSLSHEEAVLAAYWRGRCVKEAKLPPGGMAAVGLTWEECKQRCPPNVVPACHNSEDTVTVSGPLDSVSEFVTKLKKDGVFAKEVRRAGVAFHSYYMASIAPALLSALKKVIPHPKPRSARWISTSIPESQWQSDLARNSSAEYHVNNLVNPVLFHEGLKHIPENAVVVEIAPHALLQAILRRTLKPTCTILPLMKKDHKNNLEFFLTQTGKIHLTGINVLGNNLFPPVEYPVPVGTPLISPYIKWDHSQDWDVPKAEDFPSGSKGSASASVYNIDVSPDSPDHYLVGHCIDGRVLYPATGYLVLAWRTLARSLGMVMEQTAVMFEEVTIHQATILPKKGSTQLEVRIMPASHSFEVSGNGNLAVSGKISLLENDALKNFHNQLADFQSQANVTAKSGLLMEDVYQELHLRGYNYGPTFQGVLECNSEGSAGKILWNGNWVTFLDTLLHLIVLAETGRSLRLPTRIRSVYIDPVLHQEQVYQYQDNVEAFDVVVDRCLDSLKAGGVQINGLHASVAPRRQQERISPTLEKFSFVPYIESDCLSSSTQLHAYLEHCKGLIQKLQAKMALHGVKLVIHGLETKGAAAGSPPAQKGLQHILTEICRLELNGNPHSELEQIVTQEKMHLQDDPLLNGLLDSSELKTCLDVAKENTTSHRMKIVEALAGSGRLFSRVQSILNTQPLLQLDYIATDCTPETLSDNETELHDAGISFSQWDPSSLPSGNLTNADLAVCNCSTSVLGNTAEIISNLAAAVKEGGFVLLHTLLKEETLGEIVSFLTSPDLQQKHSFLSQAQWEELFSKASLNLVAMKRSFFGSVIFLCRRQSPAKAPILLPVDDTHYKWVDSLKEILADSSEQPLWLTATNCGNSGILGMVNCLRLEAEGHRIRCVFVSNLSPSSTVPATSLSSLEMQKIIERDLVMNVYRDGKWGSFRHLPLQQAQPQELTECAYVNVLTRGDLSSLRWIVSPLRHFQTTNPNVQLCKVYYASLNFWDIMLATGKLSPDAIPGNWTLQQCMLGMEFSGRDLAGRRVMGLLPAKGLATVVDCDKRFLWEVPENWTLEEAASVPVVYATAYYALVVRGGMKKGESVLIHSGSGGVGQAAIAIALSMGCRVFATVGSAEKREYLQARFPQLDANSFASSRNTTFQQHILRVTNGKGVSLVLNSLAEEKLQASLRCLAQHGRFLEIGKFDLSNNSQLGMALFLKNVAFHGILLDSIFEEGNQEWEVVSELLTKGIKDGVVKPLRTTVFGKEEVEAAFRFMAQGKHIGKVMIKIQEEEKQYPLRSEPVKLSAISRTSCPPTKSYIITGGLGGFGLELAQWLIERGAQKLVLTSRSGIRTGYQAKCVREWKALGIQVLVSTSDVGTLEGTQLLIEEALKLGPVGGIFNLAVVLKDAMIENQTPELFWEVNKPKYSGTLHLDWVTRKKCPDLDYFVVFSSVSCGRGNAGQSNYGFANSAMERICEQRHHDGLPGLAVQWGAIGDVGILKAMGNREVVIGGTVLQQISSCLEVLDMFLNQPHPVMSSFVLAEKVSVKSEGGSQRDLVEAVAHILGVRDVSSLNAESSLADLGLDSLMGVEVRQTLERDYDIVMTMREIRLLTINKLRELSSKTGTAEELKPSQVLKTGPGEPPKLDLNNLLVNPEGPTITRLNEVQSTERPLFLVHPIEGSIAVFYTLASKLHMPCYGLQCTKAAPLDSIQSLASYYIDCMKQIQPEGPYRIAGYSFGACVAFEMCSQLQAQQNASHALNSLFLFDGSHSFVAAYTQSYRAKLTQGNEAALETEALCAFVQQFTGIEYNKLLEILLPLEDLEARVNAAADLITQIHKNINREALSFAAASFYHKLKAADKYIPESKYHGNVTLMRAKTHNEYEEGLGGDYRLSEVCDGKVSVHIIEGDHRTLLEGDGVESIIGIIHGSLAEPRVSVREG
Method: as §1, §2

[4] = test system: human peripheral blood neutrophils; test: Release of superoxide in human peripheral blood neutrophils; format: cell-based; settings: for 5×10^5 cells/hour, phorbol myrstate acetate
From the text: We determined the effect of a known tocotrienol, γ-T3, on the release of superoxide in human peripheral blood neutrophils. Neutrophils are an extracellular source of oxygen free radicals. Once activated, these neutrophils can attach to endothelial tissue where they release a potent toxin, superoxide. Superoxide amplifies the inflammatory response and impairs local circulation of the blood.
The neutrophils we tested were isolated by density centrifugation on Ficoll-Hypaque gradients using conventional methods (see E. Serbinova et al., "Free Radical Recycling and Intramembrane Mobility in the Antioxidant Properties of α-Tocopherol and α-Tocotrienol", Free Rad. Bio. and Med., 10, pp. 263-75 (1991)). The neutrophils were then placed in a 96-well plate. γ-T3 and phorbol myrstate acetate were added to the wells at the same time. The secretion of superoxide anion was measured as the superoxide dismutase-inhibitable reduction of ferricytochrome C.

SMILES	Cholesterol 7α-Hydroxylase, percentage of control [1] [%]	Cholesterol 7α-hydroxylase [1] [nmol/min/mg]	APO A1, percentage of control (chickens) [%]	APO A1 in serum (chickens) [mg/100 ml]	APO B in serum (chickens) [mg/100 ml]	APO B, percentage of control (chickens) [%]	DL-Cholesterol/Total Cholesterol (chickens)	DL-Cholesterol/Total Cholesterol, percentage of control (chickens) [%]	Glucose in serum (chickens) [mg/100 ml]	Glucose, percentage of control (chickens) [%]	HDL-Cholesterol in serum (chickens) [mg/dL]	HDL-Cholesterol, percentage of control (chickens) [%]	HDL-Cholesterol/LDL-Cholesterol (chickens)	HDL-Cholesterol/LDL-Cholesterol, percentage of control (chickens) [%]	LDL-Cholesterol in serum (chickens) [mg/dL]	LDL-Cholesterol, percentage of control (chickens) [%]	Total Cholesterol in serum (chickens) [mg/dL]	Total Cholesterol, percentage of control (chickens) [%]	Triglycerides in serum (chickens) [mg/100 ml]	Triglycerides, percentage of control (chickens) [%]	other results
CC(C)=CCC/C(C)=C/CC/C(C)=C/CCC1(C)CCc2cc(O)ccc2O1 (centres unmarked) [P21, 3,4-dihydro-2-methyl-2-(4,8,12-trimethyltrideca-3' (E),7'(E),11'-trienyl)-2H-1-benzopyran-6-ol]	112.43	11.49	98.79	138.4	25.40	76.74	0.74	126.50	198.80	88.63	68.88 ± 1.52	82.33	3.11	204.60	22.16 ± 0.57	40.25	92.91 ± 1.27	65.08	56.22	75.94	increase of feed conversion efficiency [2]: 7%; Cholesterol 7α-hydroxylase ([3]; 10.0 μg/mL): 2.41 pmol/min/mg; Cholesterol 7α-hydroxylase, percentage of 0.0 μg/mL ([3]; 10.0 μg/mL): 104.3%; Cholesterol 7α-hydroxylase ([3]; 20.0 μg/mL): 3.40 pmol/min/mg; Cholesterol 7α-hydroxylase, percentage of 0.0 μg/mL ([3]; 20.0 μg/mL): 103.9%; Cholesterol 7α-hydroxylase ([3]; 40.0 μg/mL): 2.39 pmol/min/mg; Cholesterol 7α-hydroxylase, percentage of 0.0 μg/mL ([3]; 40.0 μg/mL): 103.5%; Cholesterol 7α-hydroxylase ([3]; 80.0 μg/mL): 1.37 pmol/min/mg; Cholesterol 7α-hydroxylase, percentage of 0.0 μg/mL ([3]; 80.0 μg/mL): 102.6%; increase in the HDL-/LDL-cholesterol ratio (chickens; 50 ppm in diet): > 100%; rank as cholesterol inhibitor among compounds tested (in words) (chickens; 50 ppm in diet): most potent cholesterol inhibitors; Fatty Acid Synthase (Fatty Acid Synthase; 10.0 μg/mL): 14.3 nmol/min/mg; Fatty Acid Synthase, percentage of 0.0 μg/mL (Fatty Acid Synthase; 10.0 μg/mL): 83.1%; Fatty Acid Synthase (Fatty Acid Synthase; 20.0 μg/mL): 12.7 nmol/min/mg; Fatty Acid Synthase, percentage of 0.0 μg/mL (Fatty Acid Synthase; 20.0 μg/mL): 73.8%; Fatty Acid Synthase (Fatty Acid Synthase; 40.0 μg/mL): 11.8 nmol/min/mg; Fatty Acid Synthase, percentage of 0.0 μg/mL (Fatty Acid Synthase; 40.0 μg/mL): 68.6%; Fatty Acid Synthase (Fatty Acid Synthase; 80.0 μg/mL): 10.2 nmol/min/mg; Fatty Acid Synthase, percentage of 0.0 μg/mL (Fatty Acid Synthase; 80.0 μg/mL): 59.3%
CC(C)=CCC/C(C)=C/CC/C(C)=C/CCC1CCc2cc(O)ccc2O1 (centres unmarked) [P25, 3,4-dihydro-2-(4,8,12-trimethyltrideca-3'(E),7'(E),11'-trienyl)-2H-1-benzopyran-6-ol]	111.45	11.39	98.78	138.70	25.20	76.13	0.73	125.30	196.10	87.43	70.12 ± 1.25	53.82	3.05	200.60	23.00 ± 1.27	41.77	95.51 ± 1.11	66.90	54.65	73.82	increase of feed conversion efficiency [2]: 10%; Cholesterol 7α-hydroxylase ([3]; 10.0 μg/mL): 2.33 pmol/min/mg; Cholesterol 7α-hydroxylase, percentage of 0.0 μg/mL ([3]; 10.0 μg/mL): 100.9%; Cholesterol 7α-hydroxylase ([3]; 20.0 μg/mL): 2.37 pmol/min/mg; Cholesterol 7α-hydroxylase, percentage of 0.0 μg/mL ([3]; 20.0 μg/mL): 102.61%; Cholesterol 7α-hydroxylase ([3]; 40.0 μg/mL): 2.44 pmol/min/mg; Cholesterol 7α-hydroxylase, percentage of 0.0 μg/mL ([3]; 40.0 μg/mL): 105.6%; Cholesterol 7α-hydroxylase ([3]; 80.0 μg/mL): 2.37 pmol/min/mg; Cholesterol 7α-hydroxylase, percentage of 0.0 μg/mL ([3]; 80.0 μg/mL): 102.6%; increase in the HDL-/LDL-cholesterol ratio (chickens; 50 ppm in diet): > 100%; rank as cholesterol inhibitor among compounds tested (in words) (chickens; 50 ppm in diet): most potent cholesterol inhibitors; reduction of serum cholesterol (chickens; 50 ppm in diet): ~33%; Fatty Acid Synthase (Fatty Acid Synthase; 10.0 μg/mL): 16.2 nmol/min/mg; Fatty Acid Synthase, percentage of 0.0 μg/mL (Fatty Acid Synthase; 10.0 μg/mL): 94.2%; Fatty Acid Synthase (Fatty Acid Synthase; 20.0 μg/mL): 14.3 nmol/min/mg; Fatty Acid Synthase, percentage of 0.0 μg/mL (Fatty Acid Synthase; 20.0 μg/mL): 83.1%; Fatty Acid Synthase (Fatty Acid Synthase; 40.0 μg/mL): 12.7 nmol/min/mg; Fatty Acid Synthase, percentage of 0.0 μg/mL (Fatty Acid Synthase; 40.0 μg/mL): 73.8%; Fatty Acid Synthase (Fatty Acid Synthase; 80.0 μg/mL): 12.1 nmol/min/mg; Fatty Acid Synthase, percentage of 0.0 μg/mL (Fatty Acid Synthase; 80.0 μg/mL): 70.3%
CC(C)=CCC/C(C)=C/CC/C(C)=C/CCC1(C)CCc2cc(O)c(C)c(C)c2O1 (centres unmarked) [γ-T3, γ-tocotrienol, reference compound]	107.34	10.97	99.57	139.80	29.53	89.21	0.67	114.50	208.70	93.05	78.39 ± 0.96	93.70	2.09	137.50	37.52 ± 0.81	68.14	116.86 ± 1.47	81.85	61.07	82.49	amount of superoxide released (control 19.7 nmole) ([4]; concentration 10^-5): 0 nmol; amount of superoxide released (control 19.7 nmole) ([4]; concentration 10^-6): 8.0 nmol

Reference: patent publication US6239171A, “Tocotrienols and tocotrienol-like compounds and methods for their use” (Lipogenics, Inc., priority 1998, dated 2001)
